# Test results: ChEMBL document CHEMBL5120826, “Effects of β-lapachone and β-nor-lapachone on multidrug efflux transporters and biofilms of Candida glabrata” (Bioorg Med Chem, 2022)
# Calls of active or inactive are those of the source. The rule behind the calls is not given here.
# Legend:
# Saccharomyces cerevisiae [1] = assay: Antifungal activity against fluconazole resistant Saccharomyces cerevisiae overexpressing CgCdr2p transporter assessed as reduction in fungal growth incubated for 48 hrs by checkboard assay based microplate reader analysis; format: functional
# Saccharomyces cerevisiae [2] = assay: Indifferent antifungal activity against fluconazole resistant Saccharomyces cerevisiae overexpressing CgCdr1p transporter assessed as fractional inhibitory concentration index incubated for 48 hrs by checkboard assay based microplate reader analysis; format: functional
# Saccharomyces cerevisiae [3] = assay: Indifferent antifungal activity against fluconazole resistant Saccharomyces cerevisiae overexpressing CgCdr1p transporter assessed as fractional inhibitory concentration incubated for 48 hrs in presence of lapachone by checkboard assay based microplate reader analysis; format: functional
# Saccharomyces cerevisiae [4] = assay: Indifferent antifungal activity against fluconazole resistant Saccharomyces cerevisiae overexpressing CgCdr1p transporter assessed as reduction in fungal growth incubated for 48 hrs in presence of fluconazole by checkboard assay based microplate reader analysis; format: functional
# Saccharomyces cerevisiae [5] = assay: Antifungal activity against fluconazole resistant Saccharomyces cerevisiae overexpressing CgCdr1p transporter assessed as reduction in fungal growth incubated for 48 hrs by checkboard assay based microplate reader analysis; format: functional
# Saccharomyces cerevisiae [6] = assay: Indifferent antifungal activity against fluconazole resistant Saccharomyces cerevisiae overexpressing CgCdr2p transporter assessed as fractional inhibitory concentration in presence of fluconazole incubated for 48 hrs by checkboard assay based microplate reader analysis; format: functional
# Saccharomyces cerevisiae [7] = assay: Indifferent antifungal activity against fluconazole resistant Saccharomyces cerevisiae overexpressing CgCdr1p transporter assessed as reduction in fungal growth incubated for 48 hrs in presence of lapachone by checkboard assay based microplate reader analysis; format: functional
# Saccharomyces cerevisiae [8] = assay: Indifferent antifungal activity against fluconazole resistant Saccharomyces cerevisiae overexpressing CgCdr1p transporter assessed as fractional inhibitory concentration in presence of fluconazole incubated for 48 hrs by checkboard assay based microplate reader analysis; format: functional
# Saccharomyces cerevisiae [9] = assay: Indifferent antifungal activity against fluconazole resistant Saccharomyces cerevisiae overexpressing CgCdr2p transporter assessed as fractional inhibitory concentration incubated for 48 hrs in presence of lapachone by checkboard assay based microplate reader analysis; format: functional
# Saccharomyces cerevisiae [10] = assay: Indifferent antifungal activity against fluconazole resistant Saccharomyces cerevisiae overexpressing CgCdr2p transporter assessed as reduction in fungal growth incubated for 48 hrs in presence of lapachone by checkboard assay based microplate reader analysis; format: functional
# Saccharomyces cerevisiae [11] = assay: Indifferent antifungal activity against fluconazole resistant Saccharomyces cerevisiae overexpressing CgCdr2p transporter assessed as fractional inhibitory concentration index incubated for 48 hrs by checkboard assay based microplate reader analysis; format: functional
# Saccharomyces cerevisiae [12] = assay: Indifferent antifungal activity against fluconazole resistant Saccharomyces cerevisiae overexpressing CgCdr2p transporter assessed as reduction in fungal growth incubated for 48 hrs in presence of fluconazole by checkboard assay based microplate reader analysis; format: functional
# Saccharomyces cerevisiae [13] = assay: Antifungal activity against fluconazole resistant Saccharomyces cerevisiae overexpressing CgCdr1p transporter assessed as reduction in fungal growth at lower concentration incubated for 48 hrs by serial dilution method; format: functional, organism-based
Structure (SMILES),MIC (Saccharomyces cerevisiae [1]),fractional inhibitory concentration index (FICI) (Saccharomyces cerevisiae [2]),FIC (Saccharomyces cerevisiae [3]),MIC (Saccharomyces cerevisiae [4]),MIC (Saccharomyces cerevisiae [5]),FIC (Saccharomyces cerevisiae [6]),MIC (Saccharomyces cerevisiae [7]),FIC (Saccharomyces cerevisiae [8]),FIC (Saccharomyces cerevisiae [9]),MIC (Saccharomyces cerevisiae [10]),fractional inhibitory concentration index (FICI) (Saccharomyces cerevisiae [11]),MIC (Saccharomyces cerevisiae [12]),Activity (Saccharomyces cerevisiae [13])
CC1(C)CC2=C(O1)C(=O)c1ccccc1C2=O,12.5 µg/mL,2,1 µg/mL,500 µg/mL,> 100 µg/mL,1 µg/mL,> 100 µg/mL,1 µg/mL,1 µg/mL,12.5 µg/mL,2,62.5 µg/mL,–
OC(Cn1cncn1)(Cn1cncn1)c1ccc(F)cc1F,–,–,–,–,–,–,–,–,–,–,–,–,Active
CC1(C)CCC2=C(O1)C(=O)c1ccccc1C2=O [ALPHA-LAPACHONE],> 62.5 µg/mL,2,1 µg/mL,500 µg/mL,> 100 µg/mL,1 µg/mL,> 100 µg/mL,1 µg/mL,1 µg/mL,> 100 µg/mL,2,62.5 µg/mL,–
